Measurements taken from patent publication US20090291945A1, “CYSTEINE PROTEASE INHIBITORS” (Teijin Pharma Limited, priority 2008, published 2009).

Key:
[1] = Metabolic stability test using human liver microsome; assay type: in vitro ADME; conditions: NADPH, 37° C., 25 minutes versus 0 minute, LC/MS peak area
Experimental: For the compounds synthesized according to the method of the above Examples and the compounds of formula (B) (the compounds disclosed in WO2002/070517), the metabolic stability test using the human liver microsome was performed and the residual rate of each compound was calculated.
To a human liver microsome solution (950 μL) was added a test compound solution (10 μL, 100 μM, acetonitrile solution) on an ice bath and the solution was divided into two equal parts, solution A and solution B. Note that the composition of the human liver microsome solution was as follows.
20 mg/mL protein human liver microsome (Xenotech LLC Lenexa, US): 10 μL 500 mM potassium phosphate buffer solution (pH 7.4): 200 μL 10 mM EDTA solution: 100 μL 60 mM MgCl2 solution: 50 μL 100 mM glucose-6-phosphate solution: 50 μL 100 I.U./mL glucose-6-phosphate dehydrogenase solution: 10 μL purified water: 530 μL
To the solution A (480 μL) was added acetonitrile (500 μL) on an ice bath, and then 25 mM NADPH solution (20 μL) was added. After vortexing, the mixture was centrifuged (3,000 rpm) at 4° C. for 10 minutes, and the supernatant was taken as the sample at the reaction time of 0 minute.
To the solution B (480 μL) was added 25 mM NADPH solution (20 μL). The mixture was incubated at 37° C. for 25 minutes. The reaction was quenched with acetonitrile (500 μL) and vortexing. The mixture was centrifuged (3,000 rpm) at 4° C. for 10 minutes, and the supernatant was taken as the sample at the reaction time of 25 minutes.
LC/MS measurement was performed for the samples at the reaction time of 0 minute and the reaction time of 25 minutes. Based on the peak area of the target molecular weight in the MS measurement, the residual rate of the sample at the reaction time of 25 minutes to the sample at the reaction time of 0 minute was calculated in percentage.

cathepsin K = target: T1, cathepsin K (Homo sapiens, UniProt P43235); experiment: Cathepsin K inhibitory activity (fluorescent substrate Z-Leu-Arg-MCA); assay type: biochemical; conditions: enzyme expressed in HEK293T; 15 min preincubation, 30 min reaction at room temperature, pH 5.5; read-out: Activity Intensity (cathepsin K inhibitory activity, pIC50 class) (converted)
T1 construct: the active enzyme was obtained as the enzyme fraction by using detergent containing lysis buffer; made in house; host or cells: HEK293T (GenHunter Corporation), transient expression; detergent lysate used as enzyme fraction
T1 sequence (P43235 115-329): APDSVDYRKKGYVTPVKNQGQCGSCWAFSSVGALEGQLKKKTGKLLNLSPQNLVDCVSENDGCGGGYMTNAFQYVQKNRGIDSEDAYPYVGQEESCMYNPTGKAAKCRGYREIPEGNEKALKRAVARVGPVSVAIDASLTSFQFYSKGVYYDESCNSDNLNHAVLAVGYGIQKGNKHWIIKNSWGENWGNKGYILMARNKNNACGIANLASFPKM
In short: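 Enzyme was HEK293T-expressed cathepsin K in pH 5.5 acetate buffer with 2 mM DTT, preincubated 15 min at room temperature with compound. Reaction started with Z-Leu-Arg-MCA (solution prepared at 10 μM), run 30 min, and AMC fluorescence read at 355/460 nm. IC50 taken from the curve of % inhibition vs DMSO.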

| Structure (SMILES) | Residual Rate at 25 minutes (%) [1] [%] | IC50 (cathepsin K) [nM] |
| --- | --- | --- |
| CC(C)C[C@H](Nc1cscc1-c1ccc(N2CCNCC2)cc1)C(=O)NCCNc1ccc(OCc2ccccc2)cc1 [B, reference compound] | 0 | – |
| CC[C@@H](CNc1ccc(OC)cc1OC)NC(=O)[C@H](CC(C)(C)F)N[C@@H](c1ccc(-c2ccc(S(C)(=O)=O)cc2)cc1)C(F)(F)F [Compound 5, (2S)—N-((1S)-1-{[(2,4-dimethoxyphenyl)amino]methyl}propyl)-2-[((1S)-2,2,2-trifluoro-1-{4-[4-(methylsulfonyl)phenyl]phenyl}ethyl)amino]-4-fluoro-4-methylpentanamide] | 0 | ≤ 3.16 |
| CC[C@@H](CNc1ccc(OC)cc1OC)NC(=O)[C@H](CC(C)(C)F)N[C@@H](c1ccccc1)C(F)(F)F [Compound 7, (2S)—N-((1S)-1-{[(2,4-dimethoxyphenyl)amino]methyl}propyl)-2-[((1S)-2,2,2-trifluoro-1-phenylethyl)amino]-4-fluoro-4-methylpentanamide] | 0 | ≤ 3.16 |
| CC[C@@H](CNc1ccc(N2CCOCC2)cc1)NC(=O)[C@H](CC(C)C)N[C@@H](c1ccc(=O)[nH]c1)C(F)(F)F [Compound 31] | 77 | ≤ 3.16 |
| CC[C@@H](CNc1ccc(N2CCOCC2)cc1)NC(=O)[C@H](CC(C)C)N[C@@H](c1ccc(F)cc1)C(F)(F)F [Compound 36] | 0 | ≤ 3.16 |
| CC[C@@H](CNc1ccc(N2CCOCC2)cc1)NC(=O)[C@H](CC(C)C)N[C@@H](c1ccc(=O)n(C)c1)C(F)(F)F [Compound 43] | 46 | ≤ 3.16 |
| COc1ccc(NC[C@H](CCS(C)(=O)=O)NC(=O)[C@H](CC(C)C)N[C@@H](c2ccc(=O)[nH]c2)C(F)(F)F)c(OC)c1 [Compound 81] | 41 | 31.6 to 10000 |
| CN(C)C[C@@H](CNc1ccc(N2CCOCC2)cc1)NC(=O)[C@H](CC(C)(C)F)N[C@@H](c1ccccc1)C(F)(F)F [Compound 107] | 50 | ≤ 3.16 |
| CC[C@@H](CNc1ccc(OCC(=O)O)cc1OC)NC(=O)[C@H](CC(C)(C)F)N[C@@H](c1ccccc1)C(F)(F)F [Compound 117, 2-{4-[((2S)-2-{(2S)-2-[((1S)-2,2,2-trifluoro-1-phenylethyl)amino]-4-fluoro-4-methylpentanoylamino}butyl)amino]-3-methoxyphenoxy}acetic acid] | 111 | ≤ 3.16 |
| CC[C@@H](CNc1ccc(OCC(N)=O)cc1OC)NC(=O)[C@H](CC(C)(C)F)N[C@@H](c1ccccc1)C(F)(F)F [Compound 133, (2S)—N-[(1S)-1-({[4-(carbamoylmethoxy)-2-methoxyphenyl]amino}methyl)propyl]-2-[((1S)-2,2,2-trifluoro-1-phenylethyl)amino]-4-fluoro-4-methylpentanamide] | – | ≤ 3.16 |
| CC[C@@H](CNc1ccc(OCC(=O)N(C)C)cc1OC)NC(=O)[C@H](CC(C)(C)F)N[C@@H](c1ccccc1)C(F)(F)F [Compound 134] | – | ≤ 3.16 |
| CC[C@@H](CNc1ccc(OCC(=O)N2CCCC2)cc1OC)NC(=O)[C@H](CC(C)(C)F)N[C@@H](c1ccccc1)C(F)(F)F [Compound 135] | – | ≤ 3.16 |
| CC[C@@H](CNc1ccc(OCC(=O)N2CCOCC2)cc1OC)NC(=O)[C@H](CC(C)(C)F)N[C@@H](c1ccccc1)C(F)(F)F [Compound 136] | – | ≤ 3.16 |
| CC[C@@H](CNc1ccc(OCC(=O)NCCO)cc1OC)NC(=O)[C@H](CC(C)(C)F)N[C@@H](c1ccccc1)C(F)(F)F [Compound 137] | – | ≤ 3.16 |
| CC[C@@H](CNc1ccc(OCCS(C)(=O)=O)cc1OC)NC(=O)[C@H](CC(C)(C)F)N[C@@H](c1ccc(Br)cc1)C(F)(F)F [Compound 138-2, (2S)-2-{[(1S)-1-(4-bromophenyl)-2,2,2-trifluoroethyl]amino}-N-{(1S)-1-[({2-methoxy-4-[2-(methylsulfonyl)ethoxy]phenyl}amino)methyl]propyl}-4-fluoro-4-methylpentanamide] | – | ≤ 3.16 |
| CC[C@@H](CNc1ccc(-n2nccc2C(=O)O)cc1)NC(=O)[C@H](CC(C)C)N[C@@H](c1ccccc1)C(F)(F)F [Compound 143] | – | 31.6 to 10000 |
| CC[C@@H](CNc1ccc(N2CCC(C(=O)O)CC2)cc1)NC(=O)[C@H](CC(C)C)N[C@@H](c1ccc(OC)nc1)C(F)(F)F [Compound 146] | – | ≤ 3.16 |
| CC[C@@H](CNc1ccc(OC)cc1OC)NC(=O)[C@H](CC(C)C)N[C@@H](c1ccc(O)cc1)C(F)(F)F [Compound 157, (2S)—N-((1S)-1-{[(2,4-dimethoxyphenyl)amino]methyl}propyl)-2-{[(1S)-2,2,2-trifluoro-1-(4-hydroxyphenyl)ethyl]amino}-4-methylpentanamide] | – | 3.16 to 31.6 |
| CC[C@@H](CNc1ccc(OCC#N)cc1OC)NC(=O)[C@H](CC(C)(C)F)N[C@@H](c1ccccc1)C(F)(F)F [Compound 161, (2S)—N-[(1S)-1-({[4-(cyanomethoxy)-2-methoxyphenyl]amino}methyl)propyl]-2-[((1S)-2,2,2-trifluoro-1-phenylethyl)amino]-4-fluoro-4-methylpentanamide] | – | ≤ 3.16 |

The remaining lines, values ahead:

| Residual Rate at 25 minutes (%) [1] [%] | IC50 (cathepsin K) [nM] | Structure (SMILES) |
| --- | --- | --- |
| 65 | 31.6 to 10000 | CC[C@@H](CNc1ccc(-c2ccccc2)cc1)NC(=O)[C@H](CC(C)C)N[C@@H](c1ccc(OC)nc1)C(F)(F)F [Compound 46] |
| 63 | 3.16 to 31.6 | CC(C)C[C@H](N[C@@H](c1ccccc1)C(F)(F)F)C(=O)N[C@@H](CC#N)CNc1ccc(N2CCOCC2)cc1 [Compound 93] |
| 67 | ≤ 3.16 | CC(C)C[C@H](N[C@@H](c1ccccc1)C(F)(F)F)C(=O)N[C@@H](CCCNC(=N)N)CNc1ccc(N2CCOCC2)cc1 [Compound 101] |
| 76 | ≤ 3.16 | CC[C@@H](CNc1ccc(OC2(C(=O)O)CC2)cc1OC)NC(=O)[C@H](CC(C)(C)F)N[C@@H](c1ccccc1)C(F)(F)F [Compound 118] |
| 108 | ≤ 3.16 | CC[C@@H](CNc1ccc(OCC(=O)O)cc1OC)NC(=O)[C@H](CC(C)C)N[C@@H](c1ccc(OC)nc1)C(F)(F)F [Compound 120] |
| – | 3.16 to 31.6 | CC[C@@H](CNc1ccc(OC(C)(C)C(=O)O)cc1OC)NC(=O)[C@H](CC(C)(C)F)N[C@@H](Cc1ccccc1)C(F)(F)F [Compound 132, 2-(4-{[(2S)-2-((2S)-2-{[(1S)-2,2,2-trifluoro-1-benzylethyl]amino}-4-fluoro-4-methylpentanoylamino)butyl]amino}-3-methoxyphenoxy)-2-methylpropanoic acid] |
| – | ≤ 3.16 | CC[C@@H](CNc1ccc(OCC[S+](C)[O-])cc1OC)NC(=O)[C@H](CC(C)(C)F)N[C@@H](c1ccc(Br)cc1)C(F)(F)F (stereo partly drawn) [Compound 138-1, (2S)-2-{[(1S)-1-(4-bromophenyl)-2,2,2-trifluoroethyl]amino}-N-{(1S)-1-[({2-methoxy-4-[2-(methylsulfinyl)ethoxy]phenyl}amino)methyl]propyl}-4-fluoro-4-methylpentanamide] |
| – | 31.6 to 10000 | COc1ccc(NC[C@H](CC[S+](C)[O-])NC(=O)[C@H](CC(C)C)N[C@@H](c2ccccc2)C(F)(F)F)c(OC)c1 (stereo partly drawn) [Compound 139, (2S)—N-((1S)-1-{[(2,4-dimethoxyphenyl)amino]methyl}-3-(methylsulfinyl)propyl)-2-[((1S)-2,2,2-trifluoro-1-phenylethyl)amino]-4-methylpentanamide] |
| – | 31.6 to 10000 | CC[C@@H](CNc1ccc(-n2nccc2C(=O)O)cc1)NC(=O)[C@H](CC(C)C)N[C@@H](c1ccc(OC)nc1)C(F)(F)F [Compound 144] |
| – | ≤ 3.16 | CC[C@@H](CNc1ccc(OCCCCC(=O)O)cc1OC)NC(=O)[C@H](CC(C)C)N[C@@H](c1ccccc1)C(F)(F)F [Compound 156] |
| – | ≤ 3.16 | CC[C@@H](CNc1ccc(N2CCOCC2)cc1)NC(=O)[C@H](CC(C)C)N[C@@H](c1ccc(O)cc1)C(F)(F)F [Compound 158, (2S)—N-((1S)-1-{[(4-morpholin-4-ylphenyl)amino]methyl}propyl)-2-{[(1S)-2,2,2-trifluoro-1-(4-hydroxyphenyl)ethyl]amino}-4-methylpentanamide] |
